Data on 13 compounds can be found in US20250304620A1, “ANTIMICROBIAL PEPTIDE AND APPLICATION THEREOF” (priority 2023, published 2025).

Converted amounts (≈) assume the structure as drawn. Marks after values point to notes of the source that are not given here. Non-standard residues stand in square brackets, D forms with d. Residues, ends and D or L forms follow the SMILES beside them. PEG2000 = polyethylene glycol 2000, conjugated to the N-terminus; PEG4000 = polyethylene glycol 4000, conjugated to the C-terminus; PEG200 = polyethylene glycol 200, conjugated to the C-terminus; PEG500 = polyethylene glycol 500, conjugated to the C-terminus; Phe(3,4-Cl2) = N[C@@H](Cc1ccc(Cl)c(Cl)c1)C(=O)O; Phe(3,4-F2) = N[C@@H](Cc1ccc(F)c(F)c1)C(=O)O; Phe(4-Cl) = N[C@@H](Cc1ccc(Cl)cc1)C(=O)O; Phe(4-F) = N[C@@H](Cc1ccc(F)cc1)C(=O)O; 2Nal = N[C@@H](Cc1ccc2ccccc2c1)C(=O)O; PEG1000 = polyethylene glycol 1000

The test system of one data set is rabbit red blood cells. In kind it is cell-based. The settings on record: red cells of rabbit, 1 h. The protocol:
Fresh rabbit blood ([…]) was collected and centrifuged at 500 g for 5 min, a supernatant was discarded, and red blood cells were repeatedly washed with phosphate-buffered saline (PBS, 0.01 M, pH 7.4) until the supernatant was clear. The red blood cells (RBCs) were resuspended to 10 mL, and diluted 25-fold with PBS (0.01 M, pH 7.4) to prepare a red blood cell suspension with a concentration of about 2×10^8 RBC/mL. The AMPs were subjected to gradient dilution with normal saline (0.85%, w/v, NaCl) according to a multiple dilution method, final concentrations of the SMPs were 1.95, 3.9, 7.8, 15.6, 31.3, 62.5, 125, 250, 500, 1000, and 2000 μg/mL. 100 μl of polypeptide solution was taken and added to a 96-well plate with 5 replicates for each concentration; 100 μl of rabbit blood with a red blood cell count of about 2×10^8 RBC/mL was then added to each well, the plate was incubated at 37° C. for 1 h, centrifuged at 500 g for 5 min, 100 μl of supernatant was taken and transferred to a new 96-well plate, and an optical density (OD) at a wavelength of 541 nm was measured using a microplate reader. Triton X-100 (10 mg/mL as a starting concentration, two-fold gradient dilution) was used as a positive control group. A hemolysis rate was calculated using the following formula: Hemolysis rate (%)=[(OD541 of experimental group-OD541 of negative control group)/(OD541 of positive control group−OD541 of negative control group)]×100% Specific results of the hemolysis test are shown in Table 6. Minimum hemolytic concentration (MHC): a lowest drug concentration that can cause 10% hemolysis.

In data set [1] the test system is Staphylococcus aureus (NRS 384). In words: microbe, parasite or virus in culture. In kind it is cell-based. An excerpt:
According to the Standards of Clinical and Laboratory Standards Institute (CLSI) of the USA for antimicrobial drug susceptibility test operation standards, a micronutrient serial twofold dilution method was used to determine minimum inhibitory concentrations (MICs) of all 60 peptides (S/N: LV-1˜LV-60) against Staphylococcus aureus (NRS 384). The experiment was repeated 5 times in parallel. […] An antibacterial drug Levofloxacin and an AMP Cbf-K16 (sequence of Cbf-K16: […]) were used as positive controls to evaluate the antibacterial effect of the antimicrobial peptides on Staphylococcus aureus (NRS 384).

The subject of data set [2] is Pseudomonas aeruginosa ATCC 27853. In words: Injectable formulations on mice infected with peritonitis. Format: in vivo, ICR mice. The conditions noted are these: 5 mg/kg via tail vein, twice a day for 3 days, n = 10. How it is done:
Both female and male ICR mice were used in the test, half of the female and male mice were taken and randomly assigned into groups, with 10 mice in each group, and kept in separate cages. The mice were divided into a blank control group, a negative control group, a positive control Levofloxacin group, and AMPs LV-1 to LV-30 groups. A bacterial suspension of Pseudomonas aeruginosa ATCC 27853 was prepared, a concentration of the suspension was adjusted 1×10^9 CFU/mL for subsequent use. Except for the blank control group, all other mice were injected with the bacterial suspension (0.2 mL, 1×10^9 CFU/mL), into abdominal cavity of the mice, to establish a model. After the model was successfully established, the mice were given drug immediately according to their body weights. Except for the blank control group and the negative control group, the mice in all other groups were administered the corresponding injectable formulations via tail vein, twice a day for 3 consecutive days. The mice were then observed for 14 d. The death of mice in each group was observed, and survival time of the mice was recorded. Results of the effect of the injectable formulations of AMPs LV-1 to LV-30 on the survival time of mice infected with Pseudomonas aeruginosa are shown in Table 10.

The subject of data set [3] is Escherichia coli ATCC 25922. In words: Oral formulations on mice with systemic bacterial infection. The conditions noted are these: 5 mg/kg gavage, three times a day for 7 days, n = 10. Format: in vivo, ICR mice. The protocol:
Both female and male ICR mice were used in the test, half of the female and male mice were taken and randomly assigned into groups, with 10 mice in each group, and kept in separate cages. The mice were divided into a blank control group, a negative control group, a positive control Levofloxacin group, and AMPs LV-1 to LV-30 groups. An Escherichia coli ATCC 25922 bacterial suspension was prepared, a concentration of the suspension was adjusted 1×10^7 CFU/mL for subsequent use. Except for the blank control group, all other mice were injected with the Escherichia coli suspension (0.2 mL, 1×10^7 CFU/mL), into abdominal cavity of the mice, to establish a model. After the model was successfully established, the mice were given drug immediately according to their body weights. Except for the blank control group and the negative control group, the mice in all other groups were gavaged with different compounds, three times a day for 7 consecutive days. The mice were then observed for 14 d. The death of mice in each group was observed, and survival time of the mice was recorded. Results of the effect of the oral formulations of AMPs LV-1 to LV-30 on the survival time of mice infected with Escherichia coli are shown in Table 11.

[4] abbreviates: Staphylococcus aureus (NRS 384).

Consider `CC(=O)N[C@@H](CCCNC(=N)N)C(=O)N[C@@H](CCCNC(=N)N)C(=O)N[C@@H](CC(C)C)C(=O)N[C@@H](CC(C)C)C(=O)N[C@@H](Cc1ccc2ccccc2c1)C(=O)N[C@@H](CCCNC(=N)N)C(=O)N[C@@H](CC(C)C)C(=O)N[C@@H](CCCNC(=N)N)C(=O)N[C@@H](Cc1ccc2ccccc2c1)C(=O)N[C@@H](CCCNC(=N)N)C(=O)N[C@@H](CCCNC(=N)N)C(N)=O` [LV-31] (Ac-RRLL[2Nal]RLR[2Nal]RR-NH2), for which the “MHC (minimum hemolytic concentration, lowest concentration causing 10% hemolysis)” value with rabbit red blood cells was more than 1000 µg/mL. Further, the “MIC against Staphylococcus aureus (NRS 384)” value (“MIC … (NRS 384)” for short) in data set [1] (NRS 384) is 4 µg/mL (≈ 2.31 µM).

Regarding `CC(=O)N[C@@H](CCCNC(=N)N)C(=O)N[C@@H](CCCCN)C(=O)N[C@@H](CC(C)C)C(=O)N[C@@H](CC(C)C)C(=O)N[C@@H](Cc1ccccc1)C(=O)N[C@@H](CCCNC(=N)N)C(=O)N[C@@H](CC(C)C)C(=O)N[C@@H](CCCCN)C(=O)N[C@@H](Cc1ccc2ccccc2c1)C(=O)N[C@@H](CCCNC(=N)N)C(=O)N[C@@H](CCCCN)C(N)=O` [LV-33] (Ac-RKLLFRLK[2Nal]RK-NH2), the “MHC (minimum hemolytic concentration, lowest concentration causing 10% hemolysis)” value in the data set with rabbit red blood cells was more than 1000 µg/mL. In data set [1] (NRS 384), the “MIC … (NRS 384)” value is 8 µg/mL (≈ 5.01 µM).

Regarding `CC(=O)N[C@@H](CCCNC(=N)N)C(=O)N[C@@H](CCCCN)C(=O)N[C@@H](CC(C)C)C(=O)N[C@@H](CC(C)C)C(=O)N[C@@H](Cc1ccc2ccccc2c1)C(=O)N[C@@H](CCCNC(=N)N)C(=O)N[C@@H](CC(C)C)C(=O)N[C@@H](CCCCN)C(=O)N[C@@H](Cc1ccccc1)C(=O)N[C@@H](CCCNC(=N)N)C(=O)N[C@@H](CCCCN)C(N)=O` [LV-34] (Ac-RKLL[2Nal]RLKFRK-NH2), the “MHC (minimum hemolytic concentration, lowest concentration causing 10% hemolysis)” value in the data set on rabbit red blood cells was more than 1000 µg/mL. The “MIC … (NRS 384)” value in data set [1] (NRS 384) came out at 4 µg/mL (≈ 2.51 µM).

`CC(=O)N[C@@H](CCCNC(=N)N)C(=O)N[C@@H](CCCCN)C(=O)N[C@@H](CC(C)C)C(=O)N[C@@H](CC(C)C)C(=O)N[C@@H](Cc1ccc(F)cc1)C(=O)N[C@@H](CCCCN)C(=O)N[C@@H](CC(C)C)C(=O)N[C@@H](CCCCN)C(=O)N[C@@H](Cc1ccc(F)cc1)C(=O)N[C@@H](CCCCN)C(=O)N[C@@H](CCCNC(=N)N)C(N)=O` [LV-35] (Ac-RKLL[Phe(4-F)]KLK[Phe(4-F)]KR-NH2): the “MHC (minimum hemolytic concentration, lowest concentration causing 10% hemolysis)” value in the data set with rabbit red blood cells was more than 1000 µg/mL. Further, the “MIC … (NRS 384)” value in data set [1] (NRS 384) amounted to 8 µg/mL (≈ 5.15 µM).

In the case of `CC(=O)N[C@@H](CCCNC(=N)N)C(=O)N[C@@H](CCCCN)C(=O)N[C@@H](CC(C)C)C(=O)N[C@@H](CC(C)C)C(=O)N[C@@H](Cc1ccc(F)c(F)c1)C(=O)N[C@@H](CCCCN)C(=O)N[C@@H](CC(C)C)C(=O)N[C@@H](CCCCN)C(=O)N[C@@H](Cc1ccc(F)c(F)c1)C(=O)N[C@@H](CCCCN)C(=O)N[C@@H](CCCNC(=N)N)C(N)=O` [LV-36] (Ac-RKLL[Phe(3,4-F2)]KLK[Phe(3,4-F2)]KR-NH2), the “MHC (minimum hemolytic concentration, lowest concentration causing 10% hemolysis)” value in the data set with rabbit red blood cells was more than 1000 µg/mL. Besides, the “MIC … (NRS 384)” value in data set [1] (NRS 384) was determined as 4 µg/mL (≈ 2.52 µM).

For the compound `CC(=O)N[C@@H](CCCNC(=N)N)C(=O)N[C@@H](CCCCN)C(=O)N[C@@H](CC(C)C)C(=O)N[C@@H](CC(C)C)C(=O)N[C@@H](Cc1ccc(Cl)cc1)C(=O)N[C@@H](CCCCN)C(=O)N[C@@H](CC(C)C)C(=O)N[C@@H](CCCCN)C(=O)N[C@@H](Cc1ccc(Cl)cc1)C(=O)N[C@@H](CCCCN)C(=O)N[C@@H](CCCNC(=N)N)C(N)=O` [LV-37] (Ac-RKLL[Phe(4-Cl)]KLK[Phe(4-Cl)]KR-NH2), the “MHC (minimum hemolytic concentration, lowest concentration causing 10% hemolysis)” value with rabbit red blood cells was more than 1000 µg/mL. The “MIC … (NRS 384)” value in data set [1] (NRS 384) turned out to be 4 µg/mL (≈ 2.52 µM).

Take `CC(=O)N[C@@H](CCCNC(=N)N)C(=O)N[C@@H](CCCCN)C(=O)N[C@@H](CC(C)C)C(=O)N[C@@H](CC(C)C)C(=O)N[C@@H](Cc1ccc(Cl)c(Cl)c1)C(=O)N[C@@H](CCCCN)C(=O)N[C@@H](CC(C)C)C(=O)N[C@@H](CCCCN)C(=O)N[C@@H](Cc1ccc(Cl)c(Cl)c1)C(=O)N[C@@H](CCCCN)C(=O)N[C@@H](CCCNC(=N)N)C(N)=O` [LV-38] (Ac-RKLL[Phe(3,4-Cl2)]KLK[Phe(3,4-Cl2)]KR-NH2): the “MHC (minimum hemolytic concentration, lowest concentration causing 10% hemolysis)” value in the data set with rabbit red blood cells was more than 1000 µg/mL. Also, the “MIC … (NRS 384)” value in data set [1] (NRS 384) amounted to 8 µg/mL (≈ 4.83 µM).

For the compound `C[C@H]1COc2c(N3CCN(C)CC3)c(F)cc3c(=O)c(C(=O)O)cn1c23` [Levofloxacin, reference compound], in data set [2], the “Number of mice that died on each day after infection: day 1” value is given as 3 Mouse, the “Number of mice that died on each day after infection: day 2” value is recorded as 1 Mouse, the “Number of mice that died on each day after infection: day 3” value came to 1 Mouse and the “Number of mice that died on each day after infection: day 4” value is listed as 1 Mouse. For the same compound, the “Number of mice that died on each day after infection: day 5” value in data set [2] amounted to 1 Mouse. Moreover, the “Average survival times (Days)” value in data set [2] (observed for 14 d) is 5.9* Days. In data set [1] (Staphylococcus aureus (NRS 384), read-out: MIC against Staphylococcus aureus (NRS 384)), the MIC was found to be 1 µg/mL (≈ 2.77 µM). In data set [3], the “Number of mice that died on each day after infection: day 4” value is 2 Mouse, the “Number of mice that died on each day after infection: day 5” value was found to be 2 Mouse, the “Number of mice that died on each day after infection: day 6” value was 1 Mouse and the “Number of mice that died on each day after infection: day 7” value worked out at 1 Mouse. Further, the “Number of mice that died on each day after infection: day 8” value in data set [3] came to 1 Mouse. The “Average survival times (Days)” value in data set [3] (observed for 14 d) is reported as 8.1* Days.

As for “Ac-RKLLXRLKXRK-PEG200 [LV-56] (Ac-RKLL[2Nal]RLK[2Nal]RK-PEG200) [polyethylene glycol 200 conjugated to C-terminal; X=3-(2-naphthyl)-alanine]”, the “MIC … (NRS 384)” value in data set [1] (setting [4]) was found to be 4 µg/mL.

Take “Ac-RKLLXRLKXRK-PEG500 [LV-57] (Ac-RKLL[2Nal]RLK[2Nal]RK-PEG500) [polyethylene glycol 500 conjugated to C-terminal; X=3-(2-naphthyl)-alanine]”: the “MIC … (NRS 384)” value in data set [1] (setting [4]) was determined as 8 µg/mL.

Regarding “Ac-RKLLXRLKXRK-PEG1000 [LV-58] (Ac-RKLL[2Nal]RLK[2Nal]RK-PEG1000) [polyethylene glycol 1000 conjugated to C-terminal; X=3-(2-naphthyl)-alanine]”, the “MIC … (NRS 384)” value in data set [1] (setting [4]) was found to be 4 µg/mL.

Consider “Ac-RKLLXRLKXRK-PEG4000 [LV-60] (Ac-RKLL[2Nal]RLK[2Nal]RK-PEG4000) [polyethylene glycol 4000 conjugated to C-terminal; X=3-(2-naphthyl)-alanine]”, for which the “MIC … (NRS 384)” value in data set [1] (setting [4]) came to 8 µg/mL.

Take “PEG2000-RKLLXRLKXRK-NH2 [LV-59] (PEG2000-RKLL[2Nal]RLK[2Nal]RK-NH2) [polyethylene glycol 2000 conjugated to N-terminal; X=3-(2-naphthyl)-alanine]”: in data set [1] (setting [4]), the “MIC … (NRS 384)” value came out at 4 µg/mL.
